PubChem BioAssay (NCI)
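The compound was tested at five concentrations on cells cultured in 96-well plates, with a 48-hour exposure period. Here, GI50 denotes the concentration required for 50% inhibition of growth. TGI marks complete inhibition of growth.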

How the values were obtained:
Test in all cases: growth of human tumour cells (NCI), 48 h
786-0 renal = system: 786-0 renal
A498 renal = system: A498 renal
A549 NSCLC = system: A549 NSCLC
ACHN renal = system: ACHN renal
BT-549 breast = system: BT-549 breast
CAKI-1 renal = system: CAKI-1 renal
CCRF-CEM leukemia = system: CCRF-CEM leukemia
COLO 205 colon = system: COLO 205 colon
DU-145 prostate = system: DU-145 prostate
EKVX NSCLC = system: EKVX NSCLC
HCC-2998 colon = system: HCC-2998 colon
HCT-116 colon = system: HCT-116 colon
HCT-15 colon = system: HCT-15 colon
HL-60(TB) leukemia = system: HL-60(TB) leukemia
HOP-62 NSCLC = system: HOP-62 NSCLC
HOP-92 NSCLC = system: HOP-92 NSCLC
HS 578T breast = system: HS 578T breast
HT29 colon = system: HT29 colon
IGROV1 ovarian = system: IGROV1 ovarian
K-562 leukemia = system: K-562 leukemia
KM12 colon = system: KM12 colon
LOX IMVI melanoma = system: LOX IMVI melanoma
M14 melanoma = system: M14 melanoma
MALME-3M melanoma = system: MALME-3M melanoma
MCF7 breast = system: MCF7 breast
MDA-MB-231 breast = system: MDA-MB-231 breast
MDA-MB-435 = system: MDA-MB-435
MOLT-4 leukemia = system: MOLT-4 leukemia
NCI-H226 lung = system: NCI-H226 lung
NCI-H23 lung = system: NCI-H23 lung
NCI-H460 lung = system: NCI-H460 lung
NCI-H522 lung = system: NCI-H522 lung
NCI/ADR-RES ovarian = system: NCI/ADR-RES ovarian
OVCAR-3 ovarian = system: OVCAR-3 ovarian
OVCAR-4 ovarian = system: OVCAR-4 ovarian
OVCAR-5 ovarian = system: OVCAR-5 ovarian
OVCAR-8 ovarian = system: OVCAR-8 ovarian
PC-3 prostate = system: PC-3 prostate
RPMI-8226 leukemia = system: RPMI-8226 leukemia
RXF 393 renal = system: RXF 393 renal
SF-268 CNS = system: SF-268 CNS
SF-295 CNS = system: SF-295 CNS
SF-539 CNS = system: SF-539 CNS
SK-MEL-2 melanoma = system: SK-MEL-2 melanoma
SK-MEL-28 melanoma = system: SK-MEL-28 melanoma
SK-MEL-5 melanoma = system: SK-MEL-5 melanoma
SK-OV-3 ovarian = system: SK-OV-3 ovarian
SN12C renal = system: SN12C renal
SNB-19 CNS = system: SNB-19 CNS
SNB-75 CNS = system: SNB-75 CNS
SR leukemia = system: SR leukemia
SW-620 colon = system: SW-620 colon
T-47D breast = system: T-47D breast
TK-10 renal = system: TK-10 renal
U251 CNS = system: U251 CNS
UACC-257 melanoma = system: UACC-257 melanoma
UACC-62 melanoma = system: UACC-62 melanoma
UO-31 renal = system: UO-31 renal

COc1ccc(/C=C(\C#N)c2ccc(OC)cc2)cc1
GI50 (786-0 renal): > 100 µM | TGI (786-0 renal): > 100 µM | GI50 (A498 renal): > 100 µM | TGI (A498 renal): > 100 µM | GI50 (A549 NSCLC): > 100 µM | TGI (A549 NSCLC): > 100 µM | GI50 (ACHN renal): 76.1 µM | TGI (ACHN renal): > 100 µM | GI50 (BT-549 breast): 22.9 µM | TGI (BT-549 breast): > 100 µM | GI50 (CAKI-1 renal): 13.1 µM | TGI (CAKI-1 renal): > 100 µM | GI50 (CCRF-CEM leukemia): 9.47 µM | TGI (CCRF-CEM leukemia): > 100 µM | GI50 (COLO 205 colon): 21.1 µM | TGI (COLO 205 colon): > 100 µM | GI50 (DU-145 prostate): 14.9 µM | TGI (DU-145 prostate): > 100 µM | GI50 (EKVX NSCLC): 14.5 µM | TGI (EKVX NSCLC): > 100 µM | GI50 (HCC-2998 colon): 7.38 µM | TGI (HCC-2998 colon): > 100 µM | GI50 (HCT-116 colon): 7.15 µM | TGI (HCT-116 colon): > 100 µM | GI50 (HCT-15 colon): 4.56 µM | TGI (HCT-15 colon): > 100 µM | GI50 (HL-60(TB) leukemia): 13.5 µM | TGI (HL-60(TB) leukemia): > 100 µM | GI50 (HOP-62 NSCLC): 69.9 µM | TGI (HOP-62 NSCLC): > 100 µM | GI50 (HOP-92 NSCLC): 23.5 µM | TGI (HOP-92 NSCLC): > 100 µM | GI50 (HS 578T breast): 82.2 µM | TGI (HS 578T breast): > 100 µM | GI50 (HT29 colon): 7.1 µM | TGI (HT29 colon): > 100 µM | GI50 (IGROV1 ovarian): 46.1 µM | TGI (IGROV1 ovarian): > 100 µM | GI50 (K-562 leukemia): 2.78 µM | TGI (K-562 leukemia): > 100 µM | GI50 (KM12 colon): 3.87 µM | TGI (KM12 colon): > 100 µM | GI50 (LOX IMVI melanoma): 13.3 µM | TGI (LOX IMVI melanoma): > 100 µM | GI50 (M14 melanoma): 8.18 µM | TGI (M14 melanoma): > 100 µM | GI50 (MALME-3M melanoma): > 100 µM | TGI (MALME-3M melanoma): > 100 µM | GI50 (MCF7 breast): 41.5 µM | TGI (MCF7 breast): > 100 µM | GI50 (MDA-MB-231 breast): 33.6 µM | TGI (MDA-MB-231 breast): > 100 µM | GI50 (MDA-MB-435): 0.563 µM | TGI (MDA-MB-435): 18.4 µM | GI50 (MOLT-4 leukemia): 5.49 µM | TGI (MOLT-4 leukemia): > 100 µM | GI50 (NCI-H226 lung): > 100 µM | TGI (NCI-H226 lung): > 100 µM | GI50 (NCI-H23 lung): 9.77 µM | TGI (NCI-H23 lung): > 100 µM | GI50 (NCI-H460 lung): 7.31 µM | TGI (NCI-H460 lung): > 100 µM | GI50 (NCI-H522 lung): 42.8 µM | TGI (NCI-H522 lung): > 100 µM | GI50 (NCI/ADR-RES ovarian): 3.13 µM | TGI (NCI/ADR-RES ovarian): 29.3 µM | GI50 (OVCAR-3 ovarian): 7.59 µM | TGI (OVCAR-3 ovarian): 52 µM | GI50 (OVCAR-4 ovarian): 27.4 µM | TGI (OVCAR-4 ovarian): > 100 µM | GI50 (OVCAR-5 ovarian): 62.3 µM | TGI (OVCAR-5 ovarian): > 100 µM | GI50 (OVCAR-8 ovarian): 91.8 µM | TGI (OVCAR-8 ovarian): > 100 µM | GI50 (PC-3 prostate): 30 µM | TGI (PC-3 prostate): > 100 µM | GI50 (RPMI-8226 leukemia): 9.48 µM | TGI (RPMI-8226 leukemia): > 100 µM | GI50 (RXF 393 renal): 13.7 µM | TGI (RXF 393 renal): > 100 µM | GI50 (SF-268 CNS): > 100 µM | TGI (SF-268 CNS): > 100 µM | GI50 (SF-295 CNS): 8.01 µM | TGI (SF-295 CNS): > 100 µM | GI50 (SF-539 CNS): 20.7 µM | TGI (SF-539 CNS): > 100 µM | GI50 (SK-MEL-2 melanoma): > 100 µM | TGI (SK-MEL-2 melanoma): > 100 µM | GI50 (SK-MEL-28 melanoma): > 100 µM | TGI (SK-MEL-28 melanoma): > 100 µM | GI50 (SK-MEL-5 melanoma): 4.85 µM | TGI (SK-MEL-5 melanoma): > 100 µM | GI50 (SK-OV-3 ovarian): 42 µM | TGI (SK-OV-3 ovarian): > 100 µM | GI50 (SN12C renal): 81.7 µM | TGI (SN12C renal): > 100 µM | GI50 (SNB-19 CNS): 82.8 µM | TGI (SNB-19 CNS): > 100 µM | GI50 (SNB-75 CNS): 87.6 µM | TGI (SNB-75 CNS): > 100 µM | GI50 (SR leukemia): 2.07 µM | TGI (SR leukemia): > 100 µM | GI50 (SW-620 colon): 5.81 µM | TGI (SW-620 colon): > 100 µM | GI50 (T-47D breast): 32.2 µM | TGI (T-47D breast): > 100 µM | GI50 (TK-10 renal): > 100 µM | TGI (TK-10 renal): > 100 µM | GI50 (U251 CNS): 20.6 µM | TGI (U251 CNS): > 100 µM | GI50 (UACC-257 melanoma): > 100 µM | TGI (UACC-257 melanoma): > 100 µM | GI50 (UACC-62 melanoma): 10.3 µM | TGI (UACC-62 melanoma): > 100 µM | GI50 (UO-31 renal): > 100 µM | TGI (UO-31 renal): > 100 µM
